From patent publication US11964973B2 (priority 2019, dated 2024)
Like-named read-outs stand apart in the source and are kept apart here.

Experiments:
full length human DGKζ = full length human DGKζ (Homo sapiens (Human), UniProt Q13574); assay: In vitro DGK inhibition assay, Method B (DGKζ LIPGLO, extruded liposomes); type: biochemical; conditions: liposome (LIPGLO) assay; read-out: DGKζ LIPGLO IC50
[1] = test system: human venous whole blood, CD8 positive population (pERK); assay: DGK human whole blood pERK assay; type: cell-based; conditions: top concentration 20 μM
In short: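 Heparinized whole blood from healthy donors preincubated with compound 1 hour at 37° C. Stimulation used anti-CD3 at 1 μg/mL final plus cross-linking goat anti-mouse IgG for 15 minutes. Flow cytometry scored percentage pERK-positive cells among CD8-positive cells.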

Human DGKα(9-727) = Human DGKα(9-727) (Homo sapiens (Human), UniProt P23743); assay: biochemical; conditions: liposome (LIPGLO) assay; Table A; read-out: DGKα LIPGLO IC50
[2] = test system: Human venous whole blood (IFN-γ); assay: Human whole blood IFN-γ assay; type: cell-based; conditions: human whole blood, anti-CD3 plus anti-CD28, 24 hours; read-out: INFg Whole Blood Normalized Agonist EC50
Description: Assay 10: Human Whole Blood IFN-γ Assay
Human venous whole blood (22.5 μL per well), obtained from healthy donors, was pre-treated with compounds for one hour at 37° C. in a humidified 95% air/5% CO2 incubator. The blood was stimulated with 2.5 μL anti-human CD3 and anti-CD28 mAb at a final concentration of 1 μg/mL each for 24 hours at 37° C. IFN-γ in the supernatants was measured using AlphLISA kit (Cat #AL217).

human DGKζ = human DGKζ (Homo sapiens (Human), UniProt Q13574); assay: biochemical; type: biochemical; conditions: liposome (LIPGLO) assay; read-out: DGKζ LIPGLO IC50
DGKα = DGKα (Homo sapiens (Human), UniProt P23743); assay: biochemical; type: biochemical; conditions: liposome (LIPGLO) assay; read-out: DGKα LIPGLO IC50
[3] = test system: naïve human CD8 T cells (IFN-γ); assay: Human CD8 T cells IFN-γ assay; type: cell-based; conditions: T-cell
Description: Assay 8: Human CD8 T Cells IFN-γ Assay
Frozen naïve human CD8 T cells were thawed in AIM-V media, incubated for 2 h in 37° C., and counted. The 384-well tissue culture plate was coated overnight at 4° C. with 20 μL anti-human CD3 at 0.05 μg/mL in PBS, which was removed off the plate before 40,000 cells per 40 microliters CD8 T cells with 0.1 μg/mL soluble anti-human CD28 were added to each well. The compounds were transferred using an Echo liquid handler to the cell plate immediately after the cells were plated. After 20 h incubation at 37° C. incubator, 3 microliters per well supernatants transferred into a new 384-well white assay plate for cytokine measurement.
Interferon-γ (IFN-γ) was quantitated using the AlphLISA kit (Cat #AL217) as described by the manufacturer manual (Perkin Elmer). The counts from each well were converted to IFN-γ concentration (pg/mL).

[4] = human whole blood, CD8 positive population, anti-CD3 stimulation, read-out: DGK HWB (human whole blood pERK)
[5] = read-out: DGK HWB (human whole blood pERK), human whole blood, CD8 positive population, anti-CD3 stimulation
[6] = read-out: HuCD8 INFG Normalized EC50
[7] = Homo sapiens, CD8 positive, human whole blood, CD8 positive population, anti-CD3 stimulation, read-out: DGK HWB (human whole blood pERK)

Chain of full length human DGKζ (Q13574 whole entry, looked up): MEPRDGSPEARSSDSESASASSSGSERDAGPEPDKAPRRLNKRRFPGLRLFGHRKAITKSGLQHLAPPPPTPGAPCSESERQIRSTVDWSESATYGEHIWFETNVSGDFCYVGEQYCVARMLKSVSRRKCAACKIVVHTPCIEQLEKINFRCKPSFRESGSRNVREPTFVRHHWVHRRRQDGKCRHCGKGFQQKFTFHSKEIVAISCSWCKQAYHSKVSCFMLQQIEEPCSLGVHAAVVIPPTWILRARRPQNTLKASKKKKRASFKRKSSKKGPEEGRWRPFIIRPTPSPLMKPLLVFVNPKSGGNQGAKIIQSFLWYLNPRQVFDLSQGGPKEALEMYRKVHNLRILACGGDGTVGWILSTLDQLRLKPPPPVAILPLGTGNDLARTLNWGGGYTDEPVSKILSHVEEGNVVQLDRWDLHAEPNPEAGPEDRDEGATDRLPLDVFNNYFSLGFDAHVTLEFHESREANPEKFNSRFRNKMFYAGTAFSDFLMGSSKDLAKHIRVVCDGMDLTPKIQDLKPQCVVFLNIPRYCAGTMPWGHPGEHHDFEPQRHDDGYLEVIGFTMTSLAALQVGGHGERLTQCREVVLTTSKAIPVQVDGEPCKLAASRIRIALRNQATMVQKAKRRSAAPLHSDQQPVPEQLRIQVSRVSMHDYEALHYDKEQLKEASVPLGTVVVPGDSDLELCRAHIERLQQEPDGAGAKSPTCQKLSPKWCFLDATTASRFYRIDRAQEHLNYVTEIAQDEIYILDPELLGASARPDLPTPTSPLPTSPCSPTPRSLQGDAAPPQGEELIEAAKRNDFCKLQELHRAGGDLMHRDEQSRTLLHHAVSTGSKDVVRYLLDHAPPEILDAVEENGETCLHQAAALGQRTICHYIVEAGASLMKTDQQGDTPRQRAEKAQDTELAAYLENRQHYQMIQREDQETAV
Chain of Human DGKα(9-727) (P23743 whole entry, looked up): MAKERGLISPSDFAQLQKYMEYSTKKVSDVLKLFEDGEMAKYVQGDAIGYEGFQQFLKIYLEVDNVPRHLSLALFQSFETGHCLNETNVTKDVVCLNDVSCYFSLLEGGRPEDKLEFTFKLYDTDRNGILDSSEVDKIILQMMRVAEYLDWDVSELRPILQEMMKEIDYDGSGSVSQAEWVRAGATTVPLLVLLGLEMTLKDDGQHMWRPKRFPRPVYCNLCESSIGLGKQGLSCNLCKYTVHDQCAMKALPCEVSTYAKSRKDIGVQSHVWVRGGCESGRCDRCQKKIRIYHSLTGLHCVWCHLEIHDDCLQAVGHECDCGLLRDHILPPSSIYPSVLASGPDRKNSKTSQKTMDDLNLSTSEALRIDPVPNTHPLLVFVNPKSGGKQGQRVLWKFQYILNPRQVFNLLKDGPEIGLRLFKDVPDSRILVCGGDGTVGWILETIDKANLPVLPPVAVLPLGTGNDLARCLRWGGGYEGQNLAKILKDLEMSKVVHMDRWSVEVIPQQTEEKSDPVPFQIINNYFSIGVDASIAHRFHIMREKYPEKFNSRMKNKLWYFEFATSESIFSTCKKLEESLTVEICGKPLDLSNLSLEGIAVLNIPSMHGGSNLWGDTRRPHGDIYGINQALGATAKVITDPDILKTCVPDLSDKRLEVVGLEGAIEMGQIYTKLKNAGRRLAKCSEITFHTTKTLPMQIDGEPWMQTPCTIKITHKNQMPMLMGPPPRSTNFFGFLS
Chain of DGKα (P23743 whole entry, looked up): as above
Chain of human DGKζ (Q13574 whole entry, looked up): as the sequence (Q13574 whole entry, looked up) above

SMILES | IC50 (full length human DGKζ) [nM] | EC50 [1, 4] [nM] | IC50 (Human DGKα(9-727)) [nM] | other results
CCO[C@@H]1CN(c2nc(=O)n(C)c3ccc(C#N)nc23)CC[C@H]1Oc1ccc(OC(C)C)cn1 (relative stereo) [Example 400, trans-4-(3-Ethoxy-4-((5-isopropoxypyridin-2-yl)oxy)piperidin-1-yl)-1-methyl-2-oxo-1,2-dihydropyrido[3,2-d]pyrimidine-6-carbonitrile] | 700 | 9200 | 6100 | 
CCO[C@@H]1CN(c2nc(=O)n(C)c3ccc(C#N)nc23)CC[C@H]1Oc1ccc(OC(C)C)cn1 (relative stereo) [Example 401, trans-4-(3-Ethoxy-4-((5-isopropoxypyridin-2-yl)oxy)piperidin-1-yl)-1-methyl-2-oxo-1,2-dihydropyrido[3,2-d]pyrimidine-6-carbonitrile] | 390 | 2300 | 830 | 
CCO[C@H]1CN(c2nc(=O)n(C)c3ccc(C#N)nc23)CC[C@@H]1Oc1ccccc1 (relative stereo) [Example 402, trans-4-(3-Ethoxy-4-phenoxypiperidin-1-yl)-1-methyl-2-oxo-1,2-dihydropyrido[3,2-d] pyrimidine-6-carbonitrile] | 900 |  | 2100 | EC50 [1, 5]: 2800 nM
CCO[C@H]1CN(c2nc(=O)n(C)c3ccc(C#N)nc23)CC[C@@H]1Oc1ccccc1 (relative stereo) [Example 403, trans-4-(3-Ethoxy-4-phenoxypiperidin-1-yl)-1-methyl-2-oxo-1,2-dihydropyrido[3,2-d] pyrimidine-6-carbonitrile] | 5300 |  | 19000 | EC50 [1, 5]: 11000 nM
CCC(C)(C)c1ccc(O[C@@H]2CCN(c3cc(=O)n(C)c4ccc(C#N)nc34)C[C@H]2C)cc1 (single isomer, unassigned) [Example 83] |  |  |  | EC50 [2]: 360 nM; IC50 (human DGKζ): 5800 nM; IC50 (DGKα): 280 nM; EC50 [3, 6]: 2.5 nM
CCO[C@H]1CN(c2cc(=O)n(C)c3ccc(C#N)nc23)CC[C@@H]1OCc1cccc(C(F)(F)F)c1 (single isomer, unassigned) [Example 382] | 130000 |  | 17000 | EC50 [1, 7]: 20000 nM
C[C@@H]1CN(c2cc(=O)n(C)c3ccc(C#N)nc23)CC[C@H]1Oc1ccc(OC(C)(C)C)cc1 [Example 85, 8-((3R,4R)-4-(4-(tert-butoxy)phenoxy)-3-methylpiperidin-1-yl)-5-methyl-6-oxo-5,6-dihydro-1,5-naphthyridine-2-carbonitrile] |  |  |  | EC50 [2]: 2200 nM; IC50 (DGKα): 80 nM; EC50 [3, 6]: 610 nM
Cn1c(=O)c(Cl)c(N2CCC(Oc3ccc(OC(F)(F)F)cc3)CC2)c2nc(C#N)ccc21 [Example 238, 7-chloro-5-methyl-6-oxo-8-(4-(4-(trifluoromethoxy)phenoxy)piperidin-1-yl)-5,6-dihydro-1,5-naphthyridine-2-carbonitrile] |  |  |  | EC50 ([3]; read-out: HuCD8 INFG): 160 nM
Cn1c(=O)c(Br)c(N2CCC(Oc3ccc(OC(F)(F)F)cc3)CC2)c2nc(C#N)ccc21 [Example 239, 7-bromo-5-methyl-6-oxo-8-(4-(4-(trifluoromethoxy)phenoxy)piperidin-1-yl)-5,6-dihydro-1,5-naphthyridine-2-carbonitrile] |  |  |  | EC50 ([3]; read-out: HuCD8 INFG): 820 nM
CCO[C@H]1CN(c2cc(=O)n(C)c3ccc(C#N)nc23)CC[C@@H]1Oc1cnc(OC(C)C)cn1 [Example 377, 8-((3S,4S)-3-ethoxy-4-((5-isopropoxypyrazin-2-yl)oxy)piperidin-1-yl)-5-methyl-6-oxo-5,6-dihydro-1,5-naphthyridine-2-carbonitrile] | 75 | 450 | 130 | 
CCO[C@H]1CN(c2cc(=O)n(C)c3ccc(C#N)nc23)CC[C@@H]1Oc1cnc(OC(C)C)cn1 [Example 378, 8-((3S,4S)-3-ethoxy-4-((5-isopropoxypyrazin-2-yl)oxy)piperidin-1-yl)-5-methyl-6-oxo-5,6-dihydro-1,5-naphthyridine-2-carbonitrile] | 5200 | 10000 | 7700 | 
CCO[C@H]1CN(c2cc(=O)n(C)c3ccc(C#N)nc23)CC[C@@H]1Oc1ncc(OC(C)C)cn1 [Example 379, 8-((3S,4S)-3-ethoxy-4-((5-isopropoxypyrimidin-2-yl)oxy)piperidin-1-yl)-5-methyl-6-oxo-5,6-dihydro-1,5-naphthyridine-2-carbonitrile] | 3100 | 7000 | 580 | 
CCO[C@H]1CN(c2cc(=O)n(C)c3ccc(C#N)nc23)CC[C@@H]1Oc1ncc(OC(C)C)cn1 [Example 380, 8-((3S,4S)-3-ethoxy-4-((5-isopropoxypyrimidin-2-yl)oxy)piperidin-1-yl)-5-methyl-6-oxo-5,6-dihydro-1,5-naphthyridine-2-carbonitrile] | 14000 | 20000 | 1300 | 
CCO[C@H]1CN(c2cc(=O)n(C)c3ccc(C#N)nc23)CC[C@@H]1OCc1cccc(C(F)(F)F)c1 [Example 381, 8-((3S,4S)-3-ethoxy-4-((3-(trifluoromethyl)benzyl)oxy)piperidin-1-yl)-5-methyl-6-oxo-5,6-dihydro-1,5-naphthyridine-2-carbonitrile] | 7400 |  | 310 | EC50 [1, 7]: 240 nM
CN(C)CCO[C@@H]1CN(c2cc(=O)n(C)c3ccc(C#N)nc23)CC[C@H]1Oc1cccc(C(F)(F)F)c1 [Example 386, 8-((3R,4R)-3-(2-(dimethylamino)ethoxy)-4-(3-(trifluoromethyl)phenoxy)piperidin-1-yl)-5-methyl-6-oxo-5,6-dihydro-1,5-naphthyridine-2-carbonitrile] | 42000 |  | 130000 | EC50 [1, 7]: 20000 nM
Cn1c(=O)cc(N2CC[C@@H](Oc3cccc(C(F)(F)F)c3)[C@H](OCC3CC3)C2)c2nc(C#N)ccc21 [Example 387, 8-((3R,4R)-3-(cyclopropylmethoxy)-4-(3-(trifluoromethyl)phenoxy)piperidin-1-yl)-5-methyl-6-oxo-5,6-dihydro-1,5-naphthyridine-2-carbonitrile] | 97 | 650 | 2100 | 
COCCO[C@@H]1CN(c2cc(=O)n(C)c3ccc(C#N)nc23)CC[C@H]1Oc1cccc(C(F)(F)F)c1 [Example 389, 8-((3R,4R)-3-(2-methoxyethoxy)-4-(3-(trifluoromethyl)phenoxy)piperidin-1-yl)-5-methyl-6-oxo-5,6-dihydro-1,5-naphthyridine-2-carbonitrile] | 270 |  | 2500 | EC50 [1, 5]: 3000 nM
Cn1c(=O)cc(N2CC[C@@H](Oc3cccc(C(F)(F)F)c3)[C@H](OCCN3CCOCC3)C2)c2nc(C#N)ccc21 [Example 392, 5-methyl-8-((3R,4R)-3-(2-morpholinoethoxy)-4-(3-(trifluoromethyl)phenoxy)piperidin-1-yl)-6-oxo-5,6-dihydro-1,5-naphthyridine-2-carbonitrile] | 24000 |  | 42000 | EC50 [1, 5]: 13000 nM
Cn1c(=O)cc(N2CC[C@@H](Oc3cccc(C(F)(F)F)c3)[C@H](OCC(F)(F)F)C2)c2nc(C#N)ccc21 [Example 393, 5-methyl-6-oxo-8-((3R,4R)-3-(2,2,2-trifluoroethoxy)-4-(3-(trifluoromethyl)phenoxy)piperidin-1-yl)-5,6-dihydro-1,5-naphthyridine-2-carbonitrile] | 380 |  | 1100 | EC50 [1, 5]: 680 nM
CCO[C@H]1CN(c2nc(=O)n(C)c3ccc(C#N)nc23)CC[C@@H]1Oc1ccc(C(F)(F)F)cc1 [Example 404, 4-((3S,4S)-3-ethoxy-4-(4-(trifluoromethyl)phenoxy)piperidin-1-yl)-1-methyl-2-oxo-1,2-dihydropyrido[3,2-d]pyrimidine-6-carbonitrile] | 1200 |  | 5600 | EC50 ([1]; Homo sapiens, CD8 positive, read-out: DGK HWB (human whole blood pERK), human whole blood, CD8 positive population, anti-CD3 stimulation): 1300 nM
